From patent publication US12440466B2, “Fatty acid derivatives for treating non-alcoholic steatohepatitis” (BASF AS, priority 2017, dated 2025)
Marks after values point to notes of the source that are not given here.

Assays:
[1] = tested on: CDAA/high-fat fed mice; assay: Hepatic hydroxyproline (HYP) content, CDAA/high-fat diet induced NASH mouse model; assay type: in vivo
Description: Mouse models that are deficient in methionine and/choline (MCD and CDAA respectively) are well established for studying the development and treatment of NASH in pre-clinical drug development. As precursors for the synthesis of phosphatidylcholine, a dietary deficiency of methionine/choline leads to an inability to synthesize hepatic lipoproteins for the export of triglyceride that results in severe hepatic steatosis, inflammation and fibrosis.
Although the widely used methionine-choline deficient (MCD) diet consistently reproduces severe NASH-like hepatic inflammation and fibrosis in mice, it is also associated with severe weight-loss (loss of both skeletal muscle and fat mass). This is associated with an increased risk of death which presents major problems for long-term fibrogenesis experiments.
In Biological Examples 1-7, studies were performed in male C56BL/6J mice (9 weeks old). Mice were fed either choline-sufficient (CS) or choline deficient high-fat diets (31% total calories; “CDAA/high-fat”). The NASH inducing diet was instigated 6 weeks prior to the commencement of treatment in order to design the study as a treatment/reversal set-up rather than prophylaxis.
In Biological Examples 1-5, mice were divided into 6 experimental groups (n=9 per group) and fed either CS or CDAA/high-fat diets. After 6 weeks of either the CS- or CDAA diet, mice were orally administered Compound A or comparison Compound N, both at 2 doses, 0.15 mmol/kg bw/day (low-dose, LD) and 0.3 mmol/kg bw per day (high-dose, HD). The test substances were administered orally as admix to the high-fat diet. Hepatic fibrosis was assessed by both measurement of hydroxyproline (HYP) content and Sirius Red (SR) morphometry. Fibrosis, inflammation and metabolism related transcripts levels were measured by quantitative real-time polymerase chain reaction (qPCR).

[2] = tested on: canonical genes regulating hepatic fibrogenesis; assay: Hepatic fibrogenic gene expression by RNA sequencing in ob/ob AMLN mice; assay type: in vivo, mouse; conditions: 4 weeks, Compound A 112 mg/kg, pioglitazone 30 mg/kg
Procedure: (§1) Obese diet-induced B6.V-Lepob/Jrj mice (ob/ob) are consistently fibrosis (liver) prone when cholesterol (2%), 40% fat (containing 18% trans-fatty acids) and 20% fructose are added to a high-caloric diet (i.e., AMLN high-fat diet). ob/ob mice on AMLN diet (termed ‘ob/ob AMLN mice’) develop steatohepatitis and fibrosis within a shorter timeframe ([…]) compared with wild-type C57BL/6 mice (AMLN mice) fed the same diet. ob/ob AMLN mice provide an obese diet-induced model of NASH that also allows the study of effects on glycemic control. Development of NASH in the ob/ob AMLN model is confirmed by biopsy.
In Biological Examples 10-12, 15, and 19, studies were performed in male ob/ob mice (5 weeks old) fed an AMLN high-fat diet for 15 weeks, then randomized into 3 groups (n=10 per group) to receive either 112 mg/kg bw per day of Compound A via diet, 30 mg/kg bw per day pioglitazone via diet or no treatment (vehicle) for a further 4 weeks. An oral glucose tolerance test (OGTT) was performed at week 3. Hepatic fibrosis was assessed via measurements of hepatic fibrogenic/fibrolytic gene expression by RNA sequencing at 4 weeks.

[3] = tested on: STAM (model) mice; assay: NAFLD activity score (NAS) in streptozotocin/high-fat diet NASH model (STAM model); assay type: in vivo, mouse; conditions: 6 weeks treatment, Compound A 37 mg/kg/day oral gavage, telmisartan positive control
Description: In Biological Example 8, pathogen-free 15-day-pregnant C57BL/6 mice were obtained from Charles River Laboratories in Japan Inc. (Kanagawa, Japan). NASH was established in male mice by a single subcutaneous injection of streptozotocin (STZ) (Sigma, USA) after birth and feeding with a high fat diet (HFD; CLEA) Japan, Japan) ad libitum after 4 weeks of age (day 28±2). Mice were randomised into 3 groups of 8 mice at 6 weeks of age the day before the start of treatment: vehicle (saline), Compound A and telmisartan (positive control). Treatment with Compound A at a dose of 37 mg/kg bw per day via oral gavage in conjunction with a high-fat diet was given for 6 weeks before sacrifice. NAFLD activity score (NAS) was calculated according to standardised criteria and fibrosis area was assessed via Sirius Red staining.

[4] = tested on: hepatic transcriptome; assay: Hepatic transcriptome (gene expression probes) in APOE*3.CETP transgenic mice; assay type: in vivo, mouse; conditions: Compound A at a fraction of the dose of the omega-3 ethyl esters, data not shown
[5] = tested on: ob/ob AMLN mice; assay: Hepatic steatosis and hepatic cholesterol content in ob/ob AMLN mice; assay type: in vivo, mouse; conditions: 8 weeks, Compound A 45-135 mg/kg, OCA 30 mg/kg
Procedure: as §1
(§2) In Biological Examples 10, 13-14, and 16-18, studies were performed in male ob/ob mice (5 weeks old) fed an AMLN high-fat diet for 18 weeks, then randomized into 6 groups (n=10 per group) to receive either Compound A (at 3 different daily doses, 45 mg/kg, 90 mg/kg or 135 mg/kg) via diet, 30 mg/kg bw per day obeticholic acid (OCA) via diet, or no treatment (vehicle) for a further 8 weeks. Assessment of NASH related parameters and fibrosis was made at study end by quantitative immune histochemistry (IHC) measurements.

[6] = tested on: α-smooth muscle actin (SMA); assay: Hepatic α-SMA content by quantitative IHC in ob/ob AMLN mice; assay type: in vivo, mouse; conditions: 8 weeks; for α-SMA (total and % of fractional area content): vs vehicle
Procedure: as §1, §2

CC/C=C\C/C=C\C/C=C\C/C=C\C/C=C\CCCCOC(CC)C(=O)O (stereo not drawn) [Compound A, 2-((5Z,8Z,11Z,14Z,17Z)-icosa-5,8,11,14,17-pentaenyloxy)butanoic acid]
Hydroxyproline (μg) content per 100 mg liver ([1]; HD 0.3 mmol/kg bw per day orally as admix to diet): 37 μg HYP/per 100 mg liver | Hydroxyproline (μg) content per 100 mg liver ([1]; LD 0.15 mmol/kg bw/day orally as admix to diet): 38 μg HYP/per 100 mg liver | Hydroxyproline (μg) content per liver ([1]; high dose (HD) 0.3 mmol/kg bw per day orally as admix to diet): 750** μg | Hydroxyproline (μg) content per liver ([1]; low dose (LD) 0.15 mmol/kg bw/day orally as admix to diet): 800* μg | hepatic HSP47 expression [2]: significantly reduced | hepatic PDGF-β expression [2]: significantly reduced | hepatic PDGFR-β expression [2]: significantly reduced | hepatic col1A1 expression [2]: significantly reduced | hepatic col3A1 expression [2]: significantly reduced | hepatic col4A1 expression [2]: significantly reduced | Hepatocellular ballooning [3]: 1 | Lobular inflammation [3]: 0.88 | NAS score (mean ± SD) [3]: 2.3 ± 1.5 | Steatosis [3]: 0.12 | gene expression probes significantly up- or down-regulated in the liver [4]: > 1094 | steatosis (percent area or total lipid content) [5]: significantly reduced | area percentage of α-SMA content compared to pre-treatment biopsy ([6]; Compound A 45 mg/kg): non-significant trend | area percentage of α-SMA content compared to pre-treatment biopsy ([6]; Compound A 90 mg/kg): non-significant trend | α-SMA (total and % of fractional area content) ([6]; Compound A 90 mg/kg): markedly reduced | area percentage of α-SMA content compared to pre-treatment biopsy ([6]; Compound A 135 mg/kg): decreased | α-SMA (total and % of fractional area content) ([6]; Compound A 135 mg/kg): markedly reduced
